Results on one compound are retold here after patent US7595345B2, “Vitamin D receptor modulators” (Eli Lilly and Company, priority 2003, dated 2009).

Each structure is given as a SMILES string.

One data set concerns the target T1, VDR (pGal4-VDR-LBD) (Homo sapiens, UniProt P11473).
T1 construct: the receptor expression vector pGal4-VDR-LBD (10 ng); expressed in transfected cells; host or cells: Caco-2 cells
T1 sequence (P11473 127-423 limits assumed): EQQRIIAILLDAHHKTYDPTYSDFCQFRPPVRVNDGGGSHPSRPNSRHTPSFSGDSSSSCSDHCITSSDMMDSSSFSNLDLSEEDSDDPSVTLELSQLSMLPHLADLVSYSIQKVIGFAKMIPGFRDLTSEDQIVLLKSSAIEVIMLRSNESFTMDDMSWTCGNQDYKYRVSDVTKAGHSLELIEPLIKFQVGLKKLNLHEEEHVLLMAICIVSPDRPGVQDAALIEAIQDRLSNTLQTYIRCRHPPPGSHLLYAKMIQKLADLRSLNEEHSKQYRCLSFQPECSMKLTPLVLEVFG
The experiment in a line: VDR CTF (Caco-2 cell co-transfection assay). Type of data set: cell-based. As to conditions: Caco-2 cells, Gal4-responsive reporter pFRLuc; surrogate for calcemic activity. Here is the method: 2. The Caco-2 Cell Co-Transfection Assay:
The Caco-2 cell assay is an indicator for the undesirable condition of hypercalcemia. This co-transfection assay is a surrogate assay for in vivo calcemic activity of VDR ligands. […] Preferred assay results are greater than 1000 nM.
(2) Materials and Method for the Caco-2 Cell Assay:
Caco-2 cells, grown in phenol red free, DMEM (Invitrogen, Carlsbad, Calif.) containing 10% charcoal-stripped FCS (Hyclone, Logan, Utah), were transfected with Fugene 6 reagent (Roche Diagnostics, Indianapolis, Ind.). Cells (5000/well) were plated 18 h before transfection in a 96 well plate. The Cells were transfected with Gal4-responsive reporter pFRLuc (150 ng, Stratagene, La Jolla Calif.) and the receptor expression vector pGal4-VDR-LBD (10 ng), along with Fugene 6 reagent (0.2 μl/well). The DNA-Fugene complex was formed by incubating the mixture for 30 min at room temperature. The cells were transfected in triplicate for 5 h, and treated with various concentrations of VDR ligands (form 0.01 nM to 10,000 nM concentration range) 18 h post-transfection. The luciferase activity was quantified using Steady-Glo reagent kit (Promega, Madison, Wis.) as per manufacturer's specifications.

Data set [1] is described as follows: Mouse hypercalcemia assay. In kind it is in vivo. As to conditions: female DBF mice, oral gavage for 6 days, serum ionized calcium 6 hours after last dosing. An excerpt:
4. The Mouse Hypercalcemia Assay
(4) Materials and Method for the Mouse Hypercalcemia Assay: […]

The target in data set [2] is T2, RXR-VDR heterodimer (Gal4-RXR-DEF and VP16-VDR-LBD) (Homo sapiens, UniProt P11473).
T2 construct: Add the Gal4-RXR-DEF and VP16-VDR-LBD; expressed in transfected cells; host or cells: SaOs-2 cells
T2 sequence (P11473 127-423 limits assumed): T1 sequence (P11473 127-423 limits assumed)
T2 sequence (P19793 201-462 partner limits assumed): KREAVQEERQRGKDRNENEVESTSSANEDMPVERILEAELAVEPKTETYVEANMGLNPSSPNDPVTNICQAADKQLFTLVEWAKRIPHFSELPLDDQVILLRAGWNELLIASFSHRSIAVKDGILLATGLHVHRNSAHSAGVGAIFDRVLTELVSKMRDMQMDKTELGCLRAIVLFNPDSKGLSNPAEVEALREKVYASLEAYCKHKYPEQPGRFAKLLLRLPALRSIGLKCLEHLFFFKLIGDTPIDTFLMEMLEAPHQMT
Nature of the data set: RXR-VDR heterodimerization assay (SaOS-2 cells). Type of data set: cell-based. As to conditions: luciferase reporter pFR-LUC. An excerpt: 1. The RXR-VDR Heterodimer Assay:
This assay provides the VDR activity of a test compound.
This is an in vitro efficacy assay for psoriasis, abscess and adhesion. Psoriasis involves both keratinocytes and immune cells. IL-10 is a unique cytokine because it is anti-inflammatory and immunosuppressive. This assay tells us whether a VDRM is able to function as an agonist in PBMCs (primary blood mononuclear cells) or not. […] 7. Other Compound Assay Standards An alternative measure of the efficacy of compounds of the invention for treatment of osteoporosis is a numerical ratio calculated as follows: • Dose Threshold needed to induce hypercalcemia • divided by • Dose Threshold needed for bone efficacy An alternative measure of the efficacy of compounds of the invention for treatment of psoriasis is a numerical ratio calculated as follows: • Dose Threshold needed to induce hypercalcemia • divided by • Dose Threshold needed to induce keratinocyte proliferation For the above ratios, Dose Thresholds are determined from dose response curve data. 8. The CaT1 (Calcium Transport Protein 1) Assay The CaT1 Assay is an indicator for the undesirable condition of hypercalcemia. […] Preferred assay results are greater than 1000 nM. Details of the Assay Methods: (1) Materials and Method for RXR-VDR Heterodimerization Assay: Transfection Method:
Grow SaOs-2 cells in T-152 cm^2 culture flasks in growth media.
Keep the density at 5-6×10^5 cells/ml
Passage cells 1:3 twice a week
Resuspend cells in plating media and transfer into growth media.
Transfection/Treatment Media:
D-MEM Low Glucose Without Phenol Red only
T-152 cm^2 culture flask:
Use well plate to plate cells
Use Deep well plate sterile to make up treatment media.
Luciferase Assay Reagent:
Use Steady-Glo Luciferase Reagent from Promega (Cat #E2550) Consists of:
a. E2533 Assay Substrate, lyophilized product and
Aspirate media from culture flask, rinse cells with HBSS and aspirate.
Add trypsin and incubate. […]
Read the plates after drug treatment […]
Count each well using a Luminescence counter, Top Count NXT by Packard […]

The next data set has as its system rat osteocalcin promoter. Nature of the data set: OCN (osteocalcin) promoter assay. As to conditions: Rattus norvegicus, 48 h, RG-15 (ROS 17/2.8) cells, 48 hr treatment, luciferase. Type of data set: cell-based. The procedure:
3. The OCN (Osteocalcin) Promoter Assay
The OCN Promoter Assay is an indicator and marker for osteoporosis. Desired assay results are EC50 less than or equal to […]. Preferred assay results are less than […].
(3) Materials and Method for the OCN Promoter Assay:
The activation of osteocalcin by VDR ligands was evaluated in a rat osteoblast-like cell line RG-15 (ROS 17/2.8) stably expressing rat osteocalcin promoter fused with luciferase reporter gene. The stable cell lines were established as reported before (Activation of Osteocalcin Transcription involves interaction of protein kinase A- and Protein kinase C-dependent pathways. Boguslawski, G., Hale, L. V., Yu, X.-P., Miles, R. R., Onyia, J. E., Santerre R. F., Chandrasekhar, S. J. Biol. Chem. 275, 999-1006, 2000). Confluent RG-15 cells maintained in DMEM/F-12 medium (3:1) containing 5% FBS, 300 µg/ml G418 and at 37° C. under 5% CO2/95% air atmosphere were trypsinized (0.25% trypsin) and plated into white opaque 96-well cell culture plates (25000 cells/well). After 24 hr, cells (in DMEM/F-12 medium+2% FBS) were treated with various concentrations of compounds, dissolved in DMSO. The final DMSO concentration remained at 0.01% (v/v). After 48 hr treatment, the medium was removed, cells were lysed with 50 µl of lysis buffer (From Luciferase reporter assay system, Roche Diagnostics, Indianapolis, Ind.) and assayed for luciferase activity using the Luciferase Reporter Gene Assay kit from Boehringer Mannheim as per manufacturer's specifications.

On to `CCC(CC)(c1ccc(C#CC2(O)CCCC2)c(C)c1)c1ccc(C(=O)NC(C)(C)C(=O)O)c(C)c1` [Ex. 1, 2-(4-{1-Ethyl-1-[4-(1-hydroxy-cyclopentylethynyl)-3-methyl-phenyl]-propyl}-2-methyl-benzoylamino)-2-methyl-propionic acid], for which the 50% effective concentration (EC50) on VDR (pGal4-VDR-LBD) was 471 nM; in data set [2] it was 68.6 nM; with rat osteocalcin promoter, 0.96 nM. For the same compound, the “Mouse Hypercal” value in data set [1] was 3000 µg/kg/day.
